According to ChEMBL document CHEMBL1146259, “Structure-activity relationships of the ultrapotent vanilloid resiniferatoxin (RTX): the homovanillyl moiety” (Bioorg Med Chem Lett, 2007):

Target: Transient receptor potential cation channel subfamily V member 1 (Homo sapiens, UniProt Q8NER1)
Experiment: Agonist activity at human recombinant TRPV1 expressed in human HEK293 cells
Type: functional, cell-based

Sequence of Transient receptor potential cation channel subfamily V member 1 (Q8NER1 whole entry): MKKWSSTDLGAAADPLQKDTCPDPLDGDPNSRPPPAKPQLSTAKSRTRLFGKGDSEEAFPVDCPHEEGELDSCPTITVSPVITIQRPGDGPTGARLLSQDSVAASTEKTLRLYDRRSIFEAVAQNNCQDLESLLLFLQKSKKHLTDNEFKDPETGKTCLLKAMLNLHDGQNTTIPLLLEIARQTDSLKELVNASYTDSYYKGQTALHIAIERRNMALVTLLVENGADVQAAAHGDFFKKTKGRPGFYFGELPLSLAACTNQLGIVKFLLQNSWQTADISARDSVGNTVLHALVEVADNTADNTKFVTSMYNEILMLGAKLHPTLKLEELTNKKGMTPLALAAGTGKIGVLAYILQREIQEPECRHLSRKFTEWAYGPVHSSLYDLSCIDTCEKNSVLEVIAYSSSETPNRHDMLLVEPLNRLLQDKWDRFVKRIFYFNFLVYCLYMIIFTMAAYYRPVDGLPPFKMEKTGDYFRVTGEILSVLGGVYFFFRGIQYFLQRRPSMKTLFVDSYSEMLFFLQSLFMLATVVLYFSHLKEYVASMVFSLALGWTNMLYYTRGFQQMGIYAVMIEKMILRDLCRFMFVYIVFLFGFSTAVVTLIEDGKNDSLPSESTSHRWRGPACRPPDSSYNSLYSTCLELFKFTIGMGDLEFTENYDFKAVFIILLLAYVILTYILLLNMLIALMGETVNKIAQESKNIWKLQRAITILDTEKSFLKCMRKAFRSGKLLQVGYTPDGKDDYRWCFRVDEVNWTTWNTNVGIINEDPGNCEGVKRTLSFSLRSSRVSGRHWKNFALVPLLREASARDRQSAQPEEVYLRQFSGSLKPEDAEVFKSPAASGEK

| SMILES | EC50 |
| --- | --- |
| C=C(C)[C@]12C[C@@H](C)[C@@]3(OCc4ccccc4)[C@@H](C=C(COC(=O)CCc4cc(I)c(O)c(OC)c4)C[C@]4(O)C(=O)C(C)=C[C@@H]34)[C@H]1OCO2 | 8.6 nM |
| C=C(C)[C@]12C[C@@H](C)[C@@]3(OCc4ccccc4)[C@@H](C=C(COC(=O)CCc4cc(OC)c(O)cc4I)C[C@]4(O)C(=O)C(C)=C[C@@H]34)[C@H]1OCO2 | 7.9 nM |
| C=C(C)[C@]12C[C@@H](C)[C@@]3(OCc4ccccc4)[C@@H](C=C(COC(=O)/C=C/c4ccc(O)c(OC)c4)C[C@]4(O)C(=O)C(C)=C[C@@H]34)[C@H]1OCO2 | 1.5 nM |
| C=C(C)[C@]12C[C@@H](C)[C@@]3(OCc4ccccc4)[C@@H](C=C(COC(=O)CCc4ccccc4)C[C@]4(O)C(=O)C(C)=C[C@@H]34)[C@H]1OCO2 | 51.5 nM |
| C=C(C)[C@]12C[C@@H](C)[C@@]3(OCc4ccccc4)[C@@H](C=C(COC(=O)c4ccc(O)c(OC)c4)C[C@]4(O)C(=O)C(C)=C[C@@H]34)[C@H]1OCO2 | 9.4 nM |
| C=C(C)[C@]12C[C@@H](C)[C@@]3(OCc4ccccc4)[C@@H](C=C(COC(=O)CCc4ccc(O)c(OC)c4)C[C@]4(O)C(=O)C(C)=C[C@@H]34)[C@H]1OCO2 | 4.6 nM |
| C=C(C)[C@]12C[C@@H](C)[C@@]3(OCc4ccccc4)[C@@H](C=C(COC(=O)c4ccccc4)C[C@]4(O)C(=O)C(C)=C[C@@H]34)[C@H]1OCO2 | 25.5 nM |
| C=C(C)[C@]12C[C@@H](C)[C@@]3(OCc4ccccc4)[C@@H](C=C(COC(=O)Cc4ccccc4)C[C@]4(O)C(=O)C(C)=C[C@@H]34)[C@H]1OCO2 | 4.7 nM |
| C=C(C)[C@]12C[C@@H](C)[C@@]3(OCc4ccccc4)[C@@H](C=C(COC(=O)/C=C/c4ccccc4)C[C@]4(O)C(=O)C(C)=C[C@@H]34)[C@H]1OCO2 | 69.5 nM |
| C=C(C)[C@]12C[C@@H](C)[C@@]3(OCc4ccccc4)[C@@H](C=C(COC(=O)c4cc(OC)c(O)cc4I)C[C@]4(O)C(=O)C(C)=C[C@@H]34)[C@H]1OCO2 | 15.2 nM |
| C=C(C)[C@]12C[C@@H](C)[C@@]3(OCc4ccccc4)[C@@H](C=C(COC(=O)c4cc(I)c(O)c(OC)c4)C[C@]4(O)C(=O)C(C)=C[C@@H]34)[C@H]1OCO2 | 1.9 nM |
| C=C(C)[C@]12C[C@@H](C)[C@@]34O[C@](Cc5ccccc5)(O[C@@H]1[C@@H]3C=C(COC(=O)Cc1ccc(O)c(OC)c1)C[C@]1(O)C(=O)C(C)=C[C@@H]41)O2 [RESINIFERATOXIN] | 0.019 nM |
